Experiments:
mice [1] = experiment: Telemetry of core body temperature, heart rate and movement of mice in regulated H2S atmosphere; format: in vivo, mouse
Description: Implantation of telemetry devices.
Exposure of Mice to Regulated Atmosphere.
Regulation of Ambient Temperature. […] Mice were exposed to regulated atmosphere as described above.

mice [2] = experiment: Respirometry (oxygen consumption, carbon dioxide production) of mice exposed to H2S; format: in vivo, mouse
Description: Measurements were over a period of 15 minutes, with the mice in a 0.5 L sealed environmental chamber with flow rates of 500 cc/min. Consumption of oxygen is obtained by subtracting the oxygen concentration when the mouse is present, from the control when the mouse is absent. Likewise, production of carbon dioxide is obtained by subtracting the carbon dioxide concentration when the mouse is present from the control when the mouse is absent. RQ stands for respiratory quotient, and is equal to the ratio of carbon dioxide produced to oxygen […]. […] The change in the respiratory quotient reflects the disparity oxygen consumption and carbon dioxide production by the mice in the presence or absence of the H2S.

mice [3] = experiment: Visual observation of breathing of mice administered H2S; format: in vivo, mouse
Description: The different parameters of stasis (reduction in oxygen consumption, decrease in carbon dioxide production or decrease in motility) can be assessed by a variety of assays and techniques. […] Indeed, this encompasses all three parameters in that it is indicative of decreased oxygen consumption, carbon dioxide production and motility. A normal mouse in room air at standard conditions will take approximately 200 breaths per minute. […] Thus, this represents at least about a 1-20-fold decrease in cellular respiration (i.e, oxygen consumption and carbon dioxide production).
During the experiment, the mouse was visually observed and its movements were recorded by web camera, and telemetry measurements were recorded as described above. […] At the end of an approximately six-hour period, heat was applied to the cabinet by setting the cabinet temperature to 25° C. […] After the cabinet was warmed, weak respiration was observed when the core body temperature of the mouse achieved 14° C. […] Normal movement and respiration were fully apparent when the core body temperature returned to 25° C.

mice [4] = settings: mice tested before and after exposure
humans = settings: cited from earlier work
rats = settings: cited from earlier work
mice [5] = settings: 80 ppm, cited from earlier work
[6] = second mouse, 80 ppm, 3 hrs, incubator 18° C.
[7] = mice, H2S 80 ppm versus without H2S

S [hydrogen sulfide, Hydrogen sulfide]
core temperature reached (mice [1]; first mouse, 80 ppm, 90 min, incubator 18° C.): 28.6 °C
time to return to normal range of core temperature and activity in room air (mice [1]; first mouse, after 90 min at 80 ppm): ≤ 60 min
behavior of the animals after treatment (mice [1]; four mice maintained for 4 weeks after 6 hr 80 ppm at 15° C.): no apparent change in the behavior
behavior compared to untreated animals (mice [1]; mouse after 80 ppm at cabinet 10.5° C.): no apparent change in the behavior
core body temperature repeatedly reached (mice [1]; mouse, 80 ppm protocol): 13-15 °C
lowest core body temperature recorded (FIG. 7) (mice [1]; mouse, 80 ppm, ambient dropped to less than 10° C.): 10.7 °C
time to recover activity after removal from gassing chamber (mice [1]; non-telemetry mouse, 80 ppm, cabinet 10° C.): ≤ 90 min
core temperature reached (mice [1]; [6]): 18.6 °C
heart rate reached (from 600 bpm) (mice [1]; [6]): 250 bpm
recovery after rewarming in room air (mice [1]; seven mice, 80 ppm, 6 hrs): successfully recovered
lowest average core body temperature (mice [1]; seven mice, 80 ppm, 6 hrs, ambient temperature 13° C.): 15 °C
core temperature reached (estimation, electronics failed at 15.3° C.) (mice [1]; telemetry mouse, 80 ppm, cabinet 10° C.): approximately 12.5 °C
core body temperature reached (mice [1]; telemetry mouse, 80 ppm, cabinet 10.5° C., approximately six hours): 10.5 °C
RQ (respiratory quotient) (mice [2]; H2S (80 ppm) present): 0.58
production of carbon dioxide (mice [2]; H2S (80 ppm) present): 750 ppm
Consumption of oxygen (mice [2]; H2S (80 ppm) present, control without mouse minus mouse present): 1300 ppm
drop in carbon dioxide production (mice [2]; [7]): 3-4 fold
drop in oxygen consumption (mice [2]; [7]): 2-3 fold
decrease in CO2 production (mice [2]; mouse, 80 ppm (FIG. 4A)): approximately 3 fold
time to reduced carbon dioxide production (new baseline) (mice [2]; mouse, 80 ppm (FIG. 4A)): approximately 5 minutes
core body temperature at which weak respiration was observed on warming (mice [3]; 80 ppm, after cabinet 10.5° C., warming): 14 °C
decrease in cellular respiration (mice [3]; 80 ppm, core temperature 15° C., from breathing): 1-20 fold
breathing (mice [3]; 80 ppm, core temperature dropped to 15° C., normal approximately 200): 1-10 breaths per minute
core body temperature at which normal movement and respiration were fully apparent (mice [3]; after 80 ppm at 10.5° C., warming, room air): 25 °C
behavioral differences after gas exposure (mice [4]): no detectable behavioral differences
effect of exposure to extreme levels (humans; 500 ppm): sudden collapse and unconsciousness
effect of a single breath (knock down) (humans; atmosphere with 0.1% hydrogen sulfide): immediately collapse
OSHA limit for humans (humans; in vivo): 10 ppm
neurologic effect of perinatal exposure (rats; 20 or 50 ppm, 7 hours per day, gestation through post-natal day 21): longer dendritic branches with reduced aborization of cerebellar Purkinje cells
effects in exposed rat pups, perinatal study (rats; 80 ppm (Dorman et al., 2000)): no neuropathological effects or altered motor activity, passive avoidance, or acoustic startle response
learning of baited radial arm maze task (rats; moderate levels (Partlo et al., 2001)): interferes with the ability of rats to learn a baited radial arm maze task
discriminated avoidance responses (rats; moderate levels, immediately after end of exposure (Higuchi and Fukamachi)): inhibits discriminated avoidance responses
adverse effect, gross and histopathological examination (rats; rats, 80 ppm, 6 hrs per day, 5 days per week, 90 days): no observed adverse effect
tolerability (mice [5]; exposures lasting up to ten weeks (CIIT 1983; Hays, 1972)): innocuous
adverse effect, gross and histopathological examination (mice [5]; mice, 6 hrs per day, 5 days per week, 90 days): no observed adverse effect

— patent US20050170019A1, “Methods, compositions and devices for inducing stasis in cells” (Fred Hutchinson Cancer Research Center, priority 2003, published 2005)
